The results in this text go back to patent publication US20070203079A1, “Methods of using small molecule compounds for neuroprotection” (priority 2005, published 2007).

Assay type in all cases: in vivo, C. elegans
For test [1], the system named is protein misfolding and aggregation in transgenic worms. Nature of the test: Preventative assay of protein aggregation (drug from hatching to L2 stage). The note with it: exposure from hatching to L2 stage; scored at L3 and young adult. How it is done:
To see the preventative effects of the candidate drug compounds on protein misfolding and aggregation, five gravid adult worms were placed onto each drug plate and grown at 20° C. for approximately 3 days. 35-40 Fl worms at L2 stage were picked and transferred to a control plate with the same concentration of control solvent compared to the drug plate. Thirty worms at L3 stage were counted for aggregate number 8 hours later. Thirty young adults were analyzed 32 hours later.
(§1) To calculate the scaled effectiveness of special regimen of drugs on worms based on standardized decrease in protein aggregates. The following formula was used: (A−B)/(A−C)×100%, where
(§2) A=number of aggregates for worms growing on solvent control plates
(§3) B=number of aggregates for worms grown on the specific drug plate for the entire life of the worms
C=number of aggregates for worms that received pre-L2 exposure and were then removed to solvent control plates
(§4) If the regimen has no effect, the value would equal 0%. Conversely, if the regimen was as effective as raising the worms on the drug for their entire life, the value would equal 100%.

In test [2] the test system is Pdat-1::GFP+Pdat-1::α-synuclein+Pdat-1:: torsinA (ΔE) worms. In words: α-synuclein toxicity assay, mutant torsinA. From the text: (§5) We have previously shown that torsinA can prevent dopamine (“DA”) neuron degeneration resulting from overexpression of α-synuclein in the DA neurons of C. elegans, while torsinA (“ΔE”) has a reduced neuroprotection (Cao et al., J Neurosci, 2005, 25(1): 3801-3812). Specifically, only 26.1±5.3% of the worms expressing Pdat-1::GFP+Pdat-1::α-synuclein maintained all 4 wildtype CEP DA neurons as 4 day adults while the percentages of the worms expressing Pdat-1::GFP+Pdat-1::α-synuclein+Pdat-1::torsinA and Pdat-1::GFP+Pdat-1::α-synuclein+Pdat-1:: torsinA (ΔE) are 57.3±1.6% and 42.2±7.3%, respectively (Cao et al., J Neurosci, 2005, 25(1): 3801-3812) (FIG. 8).
(§6) All molecules are coded by Prestwick Library number. TorsinA-dependent compounds identified from the aggregation assay have torsinA-specific effects and, therefore, are likely to function in the same manner in the α-synuclein toxicity assay. All three α-synuclein transgenic lines were exposed to the five torsinA-dependent compounds to determine their torsinA-specificity (FIG. 9). As expected, none of these compounds had any effect in Pdat-1::GFP+Pdat-1::α-synuclein when torsinA expression is absent.

The test system of test [3] is protein misfolding and aggregation in transgenic worms. In words: Corrective assay of protein aggregation (drug from L2 stage onward). To be noted: drug exposure from L2 stage onward; scored at L3 and young adult. How it is done: To see the corrective effect of the candidate drug compounds on protein misfolding and aggregation, five gravid adult worms were placed onto a solvent control plate and grown at 20° C. for approximately 3 days. 35-40 Fl worms at L2 stage were picked and transferred to a drug plate. Thirty worms at L3 stage were counted for aggregate number 8 hours later. Thirty young adults were analyzed 32 hours later.
as §1, §2, §3
C=number of aggregates for worms that received exposure from L2 stage (until adulthood)
as §4

In test [4] the test system is worms expressing Punc-54::Q82::GFP+Punc-54::torsinA (ΔE) with a mutant torsinA only. In words: Protein aggregate assay in worms with mutant torsinA only. How it is done: (§7) C elegans nematodes were grown at 20° C. on NGM plates as described by Brenner (Brenner, Genetics, 1974, 77: 71-94). Several transgenic C. elegans lines were used for primary screens of the Prestwick small molecule library. A transgenic worm line expressing Punc-54::Q82-GFP; with both wild type (“wt”) (Punc=54: :torsinA) or mutant (Punc-54::torsinA(ΔE)). Torsin-A expresses a phenotype that results in visible protein aggregation under fluorescent microscope. Transgenic worms were plated on drug plates and progeny were studied for a return to soluble protein. […]
(§8) The screening assays used to identify the compounds use protein aggregation readouts to determine the specificities of molecular action. […]
(§9) The methods for the aggregate analysis assay are described in Caldwell et al. (Hum Mol Genetics, 2003, 12(3): 307-319). […] MetaMorph Software (Universal Imaging Inc.) was used for pseudocoloration of images, image overlay, and aggregate size quantitation. For each worm line analyzed, average aggregate size was determined by capturing images of all aggregates in the posterior region of 30 L3-staged animals (for Q82::GFP aggregates) or all aggregates in 30 adult animals/day (for Q19::GFP analyses) at 1000× magnification. […]

For test [5], the system named is Pdat-1::GFP+Pdat-1::α-synuclein+Pdat-1::torsinA worms. Nature of the test: α-synuclein toxicity assay, wt torsinA.
Excerpt: as §5, §6

The subject of test [6] is transgenic worm line Pdat-1::CAT-2. In words: Neurodegeneration by overexpression of cat-2 (tyrosine hydroxylase). From the text:
Overexpression of cat-2, the worm homologue for tyrosine hydroxylase, results in increased intraneuronal dopamine production and a characteristic loss of dopaminergic neurons in 75% of transgenic worms as compared to wild type (Cao et al., J Neurosci, 25(1):3801-3812). Co-expression of worm or human torsin proteins reduces the loss of dopaminergic neurons to a slight degree although neuronal degeneration is still present. The purpose of these experiments was to determine the effect of small molecule compounds in the Prestwick library in another different C. elegans model of neurodegeneration.
Worms were cultured using the same methods described above. A transgenic worm line expressing Pdat-1::CAT-2 expresses a phenotype that results in visible neurodegeneration at all developmental stages in an integrated line, in which only approximately 55% of 7 day old animals maintained all four CEP neurons. […] Compound 166 is an example of one such compound.
To further examine the neuroprotective effect of meclofenamic acid and lidocaine, we used a transgenic line (Pdat-1::CAT-2) we previously described (Cao et al., J Neurosci, 2005, 25(1): 3801-3812). Overexpression of cat-2, the C. elegans homolog of the tyrosine hydroxylase (“TH”) gene, causes a high level of DA production and as a result, DA neuron degeneration is observed (Cao et al., J Neurosci, 2005, 25(1): 3801-3812). […] We also tested whether meclofenamic acid was able to suppress CAT-2-induced neurodegeneration. […] Therefore, meclofenamic acid can protect DA neurons from degeneration produced by overexpression of the dopamine precursor, tyrosine hydroxylase.

The test system of test [7] is GFP::DAT-1. In words: Pdat-1::GFP::DAT-1 expression within DA neurons. The note with it: for Neurons with cell body and dendritic/axonal GFP: water control 70%; for Neurons with cell body and dendritic/axonal GFP / Mean pixel intensity of cell bodies ± SEM (fluorescence intensity): HCl; for Mean pixel intensity of cell bodies ± SEM (fluorescence intensity): water control 1970 ± 80, compounds at 1.85, 1.49, 1.86 mM.

Test [8] deals with transgenic worms containing the transgene Pdat-1::GFP without any torsinA expression. In words: 6-OHDA dopaminergic neurodegeneration in worms without torsinA. The note with it: no torsinA expression.
Test [9] concerns worms containing Pdat-1::GFP+Pdat-1::torsinA+Pdat-1::torsinA (ΔE) after 6-OHDA exposure. In words: 6-OHDA dopaminergic neurodegeneration in worms with wt and mutant torsinA. The note with it: wt and mutant torsinA co-expressed; 6-OHDA insult. The text has this: Previous studies have established that the “CEP” and “ADE” mechanosensory neurons in C. elegans undergo readily discernable neuronal degeneration after treatment with the dopamine-selective neurotoxin 6-OHDA (Nass et al, 2002). The toxicity of 6-OHDA is mediated through the formation of reactive oxygen species by the generation of hydrogen peroxide and […] via a nonenzymatic auto-oxidation process (Kumar et al., 1995; Foley and Riederer, 2000). […] This degeneration can be monitored in living animals by coexpressing with green fluorescent protein and categorized into three temporally and morphologically distinct stages, including neuronal process blebbing, cell body rounding with process loss, and cell body loss. These characteristic changes reproducibly appear in this order within a few hours, recapitulating observations in MPTP-treated monkeys and in 6-OHDA-treated rats, in which damage to striatal terminals leads to retrograde changes and precedes that of SNpc cell bodies (Berger et al., 1991; Herkenham et al., 1991). The actions of torsin protein in 6-OHDA-mediated neurodegeneration has recently been shown (Cao et al., J Neurosci, 25(1):3801-3812). Animals were treated with various concentrations of 6-OHDA and neurodegeneration was followed over time, as worms develop and age, by co-expression of a dopamine GFP marker in these transparent animals.
C. elegans nematodes were grown at 25° C. on NGM plates as described by Brenner (Brenner, Genetics, 1974, 77: 71-94). Two transgenic C. elegans lines were used for primary screens of the Prestwick small molecule library. A transgenic worm line expressing Pdat-1::GFP; with both wild type (Pdat-1::torsinA) or mutant (Pdat-1:::torsinA(ΔE)). Torsin-A expresses a phenotype that results in visible neurodegeneration after treatment with 6-OHDA. Transgenic worms were plated on drug plates and progeny were studied for morphological changes in the 8 dopaminergic neurons present in C. elegans.
Drugs were administered to C. elegans according to a standard procedure (Rand and Johnson, Methods Cell Biol, 1995, 48: 187-204) by mixing the solubilized drug with the agar medium on which the worms are grown. This mode of administration allows the continuous exposure of worms to the drug.
Each drug was first dissolved in an appropriate solvent, followed by adding the drug solution into pre-autoclaved media, with the volume of drug solution already taken into account. All drugs were tested at 0.5 mg/ml initial concentration, a few of which were toxic to worms and then tested at 0.1 mg/ml or 0.025 mg/ml concentration. Each plate was seeded with 100 μl concentrated E. coli OP50 bacteria
Age-synchronized worms were obtained by treating gravid adults with 2% sodium hypochlorite and 0.5M NaOH to isolate embryos (Lewis Fleming, 1995). These embryos were grown for 30 h at 25° C. At the L3 stage, larvae were incubated with 10 mM (50 mM) 6-OHDA and 2 mM (or 10 mM) ascorbic acid for 1 h with gentle agitation every 10 minutes. (Nass et al., 2002). The worms were then washed and spread onto NGM plates seeded with bacteria (OP50) and scored at time points ranging from 2 to 72 h after 6-OHDA exposure.
Immediately after 6-OHDA treatment, worms containing the transgenes were selected under a fluorescence dissecting microscope, based on the presence of GFP, and transferred to a fresh NGM plate seeded with OP50. For each time point, 30-40 worms were applied to a 2% agarose pad and immobilized with 3 mM levamisole. Worms were examined under a Nikon Eclipse E800 epifluorescence microscope equipped with an Endow GFP filter cube (Chroma Technology, Rockingham, Vt.). For ease of analysis, only the four CEP DA neurons in the head of the worm were scored. […]

The test system of test [10] is transgenic worms containing the transgene Punc-54::Q82::GFP without any torsinA expression. Nature of the test: Protein aggregate assay in worms without torsinA expression. How it is done:
as §7, §8, §9

Setting [11] is: Pdat-1::GFP::DAT-1, listed as Lidocaine hydrochloride.

The structures appear in SMILES notation. Counter-ions that a name gives are not always drawn. Marks after values point to notes of the source that are not given here.

For the molecule `CN(C)C(=O)C(CCN1CCC(O)(c2ccc(Cl)cc2)CC1)(c1ccccc1)c1ccccc1` [Compound 144, Loperamide HCl], the “preventative effect on protein aggregation” value in test [1] is listed as “seem to be beneficial”. In addition, in [2], the “enhanced DA neuron survival” value is reported as 39.5±1.4%. Also, the “corrective effect on protein aggregation” value in [3] is recorded as “seem to be beneficial”. Also, the reduction of aggregation entry in test [4] is given as “reduced aggregation”. For the same molecule, in [5], the “enhanced wild type DA neuron survival” value is “failed to show any significant neuroprotection”.

Take `CCN(CC)CC(=O)Nc1c(C)cccc1C` [Compound 50, lidocaine HCl]: the “neuroprotective effect against CAT-2-induced neurodegeneration” value in test [6] (Pdat-1::CAT-2) is −7.9%. In test [7] (Pdat-1::GFP::DAT-1, water control 0%), the “Worms with no GFP” value is given as 0%. Further, the “Neurons with cell body GFP only” value in [7] (Pdat-1::GFP::DAT-1, water control 30%) stood at 70%^e. In addition, in [7] (Pdat-1::GFP::DAT-1), the “Neurons with cell body and dendritic/axonal GFP” value was 30%; the “Mean pixel intensity of cell bodies ± SEM (fluorescence intensity)” value worked out at 1612 A.U. For the same molecule, in test [7] (setting [11]), the “Neurons with cell body and dendritic/axonal GFP” value is reported as 30%^d; the “Mean pixel intensity of cell bodies ± SEM (fluorescence intensity)” value is 1612 ± 78 A.U. The “effect on GFP::DAT-1 level” value in test [7] (result in words) is reported as “can down-regulate the level of DAT-1 protein directly”. Also, in test [8], the “reduction of 6-OHDA-mediated neurodegeneration” value is “reduced the 6-OHDA-mediated neurodegeneration”.

Regarding `NCc1ccc(S(N)(=O)=O)cc1` [Compound 166, Mafenide], the “neuroprotective action on dopaminergic neurons overexpressing cat-2” value in test [6] (Pdat-1::CAT-2, result in words) is given as “demonstrated a reduction in the standardized decrease in dopaminergic neurodegeneration”. The “neuroprotection of dopaminergic neurons against 6-OHDA” value in [9] is “little to no neuroprotection”. Further, the “reduction of protein aggregates” value in test [10] is recorded as “reduced the presence of protein aggregates”.
